A short description of series [1]: Cytotoxicity against human NB4 cells assessed as decrease in cell viability after 48 hrs by MTT assay. It counts as functional, cell-based. The conditions noted are these: NB-4, 48 h. On the technique in general: Tetrazolium dyes change colour on reduction, which living cells bring about.
Series [2] can be described thus: Cytotoxicity against human MKN45 cells assessed as decrease in cell viability after 48 hrs by MTT assay. It counts as functional, cell-based. The conditions noted are these: MKN-45, 48 h.
Series [3] in a line: Antiproliferative activity against human MKN45 cells at 20 uM after 48 hrs by MTT assay relative to control. It counts as functional. The conditions noted are these: MKN-45, 48 h, read-out: GI.
Series [4] in a line: Antiproliferative activity against human NB4 cells at 5 uM after 48 hrs by MTT assay relative to control. It counts as functional. The conditions noted are these: NB-4, 48 h, read-out: GI.
A short description of series [5]: Cytotoxicity against primary goat fetal fibroblast assessed as decrease in cell viability after 48 hrs by MTT assay. Conditions: goat (Capra hircus), primary goat fetal fibroblasts. It counts as toxicity.
The nature of series [6]: Cytotoxicity against primary porcine fetal kidney cells assessed as decrease in cell viability after 48 hrs by MTT assay. It counts as toxicity, cell-based. Conditions: pig (Sus scrofa).

Turning to `COc1cccc2c1C=[N+](c1cc(Cl)cc(Cl)c1)CC2`, the IC50 (in general, the concentration at which inhibition is half-maximal) in series [1] stood at 2.65 µM; in series [2], 3.61 µM. Besides, in series [3], the inhibition of growth at 20 µM was found to be 86.4%. The inhibition of growth at 5 µM in series [4] stood at 55.8%.
Taken in the same sequence, the figures for `COc1cccc2c1C=[N+](c1ccc(C(F)(F)F)cc1)CC2` were 2.58 µM, 7.07 µM, 83.4% and 53.3%.
`COc1cccc2c1C=[N+](c1ccc(Cl)cc1)CC2`: the inhibition of growth at 20 µM in series [3] came out at 12.3%. Moreover, in series [4], the inhibition of growth at 5 µM came to 23.1%.
As for `CCOc1cccc2c1C=[N+](c1ccccc1I)CC2`, the inhibition of growth at 20 µM in series [3] turned out to be 82.2%. For the same molecule, the inhibition of growth at 5 µM in series [4] amounted to 49.7%.
Take `COc1cccc2c1C=[N+](c1ccccc1Br)CC2`: the IC50 was found to be 5.3 µM in series [1] and 6.89 µM in series [2]. In series [3], the inhibition of growth at 20 µM came to 86.8%. In addition, the inhibition of growth at 5 µM in series [4] came out at 48.6%.
With `COc1cccc2c1C=[N+](c1cccc(C)c1)CC2`, in series [2], the IC50 was found to be 8.57 µM. Moreover, the inhibition of growth at 20 µM in series [3] was 79.6%. Also, in series [4], the inhibition of growth at 5 µM was 3.1%.
Consider `CC(=O)Oc1cccc2c1C=[N+](c1ccccc1I)CC2`, for which the inhibition of growth at 20 µM in series [3] is 3.4%. Besides, in series [4], the inhibition of growth at 5 µM was 15%.
For the molecule `COc1cccc2c1C=[N+](c1cccc([N+](=O)[O-])c1)CC2`, the 50% inhibitory concentration (IC50) in series [1] is 2.83 µM; in series [2] it was 13.7 µM. In addition, the inhibition of growth at 20 µM in series [3] was found to be 67.1%. In series [4], the inhibition of growth at 5 µM worked out at 40.3%.
Taken in the same sequence, the figures for `COc1ccc2c(c[n+](C)c3c4cc5c(cc4ccc23)OCO5)c1OC` [CHELERYTHRINE] were 1.49 µM, 12.7 µM, 92.7% and 88.4%.
As for `COc1cccc2c1C=[N+](c1cccc(F)c1)CC2`, the IC50 in series [1] was 18.8 µM; in series [2] it was 11.3 µM. In series [3], the inhibition of growth at 20 µM came to 80.6%. For the same molecule, the inhibition of growth at 5 µM in series [4] is 37.6%.
For the molecule `COc1cccc2c1C=[N+](c1ccccc1[N+](=O)[O-])CC2`, the inhibition of growth at 20 µM in series [3] is 3%. The inhibition of growth at 5 µM in series [4] came to 10.5%.
For the molecule `COc1cccc2c1C=[N+](c1ccc(Cl)cc1Cl)CC2`, the IC50 in series [1] amounted to 1.99 µM; in series [2], 3.55 µM. The inhibition of growth at 20 µM in series [3] was 88.2%. For the same molecule, the inhibition of growth at 5 µM in series [4] was 54.7%.
For the molecule `COc1cccc2c1C=[N+](c1ccc(I)cc1F)CC2`, the IC50 in series [1] is 3.64 µM; in series [2], 7.98 µM. In series [3], the inhibition of growth at 20 µM is 89%. Also, the inhibition of growth at 5 µM in series [4] came out at 54.8%.
As to `COc1cccc2c1C=[N+](c1cccc(Br)c1)CC2`, the results for the IC50 in series [1] and in series [2] were 4.62 µM and 10.5 µM, respectively. Moreover, the inhibition of growth at 20 µM in series [3] stood at 87.4%. The inhibition of growth at 5 µM in series [4] is 46.6%.
Turning to `COc1ccc([N+]2=Cc3c(cccc3OC)CC2)cc1`, in series [3], the inhibition of growth at 20 µM was found to be 0.7%. For the same molecule, the inhibition of growth at 5 µM in series [4] was found to be 6.6%.
On to `COc1cccc2c1C=[N+](c1cccc(Cl)c1)CC2`, for which the IC50 in series [1] was 22.4 µM; in series [2], 9.99 µM. The inhibition of growth at 20 µM in series [3] was found to be 73.3%. Further, the inhibition of growth at 5 µM in series [4] turned out to be 35.1%.
On to `COc1cccc2c1C=[N+](c1ccccc1C)CC2`, for which the inhibition of growth at 20 µM in series [3] came to 30.5%. Also, in series [4], the inhibition of growth at 5 µM was determined as 3.4%.
As for `COc1cccc2c1C=[N+](c1ccc(C#N)cc1)CC2`, the IC50 in series [1] is 3.49 µM; in series [2], 3.56 µM. In addition, the inhibition of growth at 20 µM in series [3] stood at 81.2%. In series [4], the inhibition of growth at 5 µM was 36.4%.
On to `COc1cccc2c1C=[N+](c1cccc(C#N)c1)CC2`, for which the half-inhibitory concentration (IC50) in series [1] amounted to 3.66 µM; in series [2] it was 7.13 µM. Moreover, the inhibition of growth at 20 µM in series [3] is 83.4%. In series [4], the inhibition of growth at 5 µM came to 39.6%.
As for `COc1cccc2c1C=[N+](c1cccc(O)c1)CC2`, the inhibition of growth at 20 µM in series [3] stood at 24.5%. For the same molecule, in series [4], the inhibition of growth at 5 µM came out at 24.2%.
Consider `COc1cccc2c1C=[N+](c1ccccc1F)CC2`, for which the IC50 in series [1] turned out to be 4.55 µM; in series [2], 6.64 µM. Moreover, the inhibition of growth at 20 µM in series [3] was 67.5%. Further, the inhibition of growth at 5 µM in series [4] came to 42%.
As for `COc1cccc([N+]2=Cc3c(cccc3OC)CC2)c1`, the IC50 in series [1] is 22.8 µM; in series [2], 15.1 µM. The inhibition of growth at 20 µM in series [3] came to 66.2%. For the same molecule, the inhibition of growth at 5 µM in series [4] was found to be 22.8%.
`COc1cccc2c1C=[N+](c1ccccc1C#N)CC2`: the IC50 was 6.97 µM in series [1] and 4.61 µM in series [2]. Besides, in series [3], the inhibition of growth at 20 µM stood at 51.1%. In series [4], the inhibition of growth at 5 µM came to 30.4%.
In the case of `COc1cccc2c1C=[N+](c1cccc(C(F)(F)F)c1)CC2`, the IC50 in series [1] turned out to be 9.61 µM; in series [2], 2.03 µM. Besides, the inhibition of growth at 20 µM in series [3] was found to be 78.3%. The inhibition of growth at 5 µM in series [4] is 47.9%.
As to `COc1ccccc1[N+]1=Cc2c(cccc2OC)CC1`, the inhibition of growth at 20 µM in series [3] amounted to 15%. Further, in series [4], the inhibition of growth at 5 µM turned out to be 2.1%.
Taken in the same sequence, the figures for `COc1cccc2c1C=[N+](c1ccc(O)cc1)CC2` were 5.4% and 4.7%.
`COc1cccc2c1C=[N+](c1ccccc1Cl)CC2`: the IC50 in series [1] was found to be 9.29 µM; in series [2], 7.21 µM. Besides, the inhibition of growth at 20 µM in series [3] was 84%. Besides, the inhibition of growth at 5 µM in series [4] came to 47.6%.
On to `COc1cccc2c1C=[N+](c1ccccc1)CC2`, for which the inhibition of growth at 20 µM in series [3] turned out to be 14.4%. Further, the inhibition of growth at 5 µM in series [4] came out at 20.5%.
`C[n+]1cc2c3c(ccc2c2ccc4cc5c(cc4c21)OCO5)OCO3` [SANGUINARIUM]: the figures for the IC50 in series [1] and in series [2] were 0.53 µM and 1.51 µM, respectively. For the same molecule, the inhibition of growth at 20 µM in series [3] was 92.3%. Besides, the inhibition of growth at 5 µM in series [4] was 88.5%.
For `COc1cccc2c1C=[N+](c1ccc(F)cc1)CC2`, the IC50 is 23.8 µM in series [1] and 21 µM in series [2]. In addition, the inhibition of growth at 20 µM in series [3] came to 53%. Moreover, the inhibition of growth at 5 µM in series [4] came to 40.2%.
Take `COc1cccc2c1C=[N+](c1c(F)cccc1F)CC2`: the IC50 in series [1] came to 3.9 µM; in series [2] it was 8.43 µM. The inhibition of growth at 20 µM in series [3] came out at 80.5%. In addition, the inhibition of growth at 5 µM in series [4] came to 48.9%.
The like results for `COc1cccc2c1C=[N+](c1ccc(Br)cc1Br)CC2` were, in that order, 2.46 µM, 4.53 µM, 51.9% and 61.4%.
On to `COc1cccc2c1C=[N+](c1cccc(I)c1)CC2`, for which the values for the IC50 in series [1] and in series [2] were 1.67 µM and 11.4 µM, respectively. Further, in series [3], the inhibition of growth at 20 µM was found to be 73%. In series [4], the inhibition of growth at 5 µM worked out at 45.3%. In addition, the IC50 at 48 h is 2.67 µM in series [5] and 4.57 µM in series [6].
As to `COc1cccc2c1C=[N+](c1ccccc1O)CC2`, the inhibition of growth at 20 µM in series [3] was 8.4%. Also, the inhibition of growth at 5 µM in series [4] worked out at 0.6%.
For `COc1cccc2c1C=[N+](c1ccc(Br)cc1F)CC2`, the IC50 in series [1] was 3.62 µM; in series [2], 6.95 µM. Besides, the inhibition of growth at 20 µM in series [3] was 69.2%. For the same molecule, in series [4], the inhibition of growth at 5 µM was found to be 56.9%.
As to `COc1cccc2c1C=[N+](c1ccc(Br)cc1)CC2`, the IC50 in series [1] came out at 6.12 µM; in series [2], 11 µM. The inhibition of growth at 20 µM in series [3] amounted to 96.8%. In addition, in series [4], the inhibition of growth at 5 µM was 59.4%.
In the case of `COc1cccc2c1C=[N+](c1ccc(I)cc1)CC2`, the IC50 amounted to 8.59 µM in series [1] and 4.26 µM in series [2]. Moreover, the inhibition of growth at 20 µM in series [3] came to 71.1%. Further, the inhibition of growth at 5 µM in series [4] was 51.8%.
In the case of `Ic1ccccc1[N+]1=Cc2c(cccc2OCc2ccccc2)CC1`, the IC50 in series [1] amounted to 2.65 µM; in series [2], 1.99 µM. Moreover, in series [3], the inhibition of growth at 20 µM turned out to be 91.5%. Further, the inhibition of growth at 5 µM in series [4] amounted to 78.2%.
Turning to `Oc1cccc2c1C=[N+](c1ccccc1I)CC2`, in series [3], the inhibition of growth at 20 µM was found to be 30.9%. Also, the inhibition of growth at 5 µM in series [4] was 22.9%.
Turning to `COc1cccc2c1C=[N+](c1ccc(C)cc1)CC2`, the inhibition of growth at 20 µM in series [3] was 4.7%. Besides, the inhibition of growth at 5 µM in series [4] came to 17.7%.
As for `COc1cccc2c1C=[N+](c1ccccc1C(F)(F)F)CC2`, the 50% inhibitory concentration (IC50) in series [1] is 3.06 µM; in series [2] it was 2.92 µM. Besides, the inhibition of growth at 20 µM in series [3] was determined as 85%. The inhibition of growth at 5 µM in series [4] came to 59.3%.
